Paper PMC11173382, “In Vitro Investigations into the Potential Drug Interactions of Pseudoginsenoside DQ Mediated by Cytochrome P450 and Human Drug Transporters” (Molecules, 2024)

Biological target: T1, hOAT1 (Homo sapiens, UniProt Q4U2R8)
T1 sequence (Q4U2R8 1-563): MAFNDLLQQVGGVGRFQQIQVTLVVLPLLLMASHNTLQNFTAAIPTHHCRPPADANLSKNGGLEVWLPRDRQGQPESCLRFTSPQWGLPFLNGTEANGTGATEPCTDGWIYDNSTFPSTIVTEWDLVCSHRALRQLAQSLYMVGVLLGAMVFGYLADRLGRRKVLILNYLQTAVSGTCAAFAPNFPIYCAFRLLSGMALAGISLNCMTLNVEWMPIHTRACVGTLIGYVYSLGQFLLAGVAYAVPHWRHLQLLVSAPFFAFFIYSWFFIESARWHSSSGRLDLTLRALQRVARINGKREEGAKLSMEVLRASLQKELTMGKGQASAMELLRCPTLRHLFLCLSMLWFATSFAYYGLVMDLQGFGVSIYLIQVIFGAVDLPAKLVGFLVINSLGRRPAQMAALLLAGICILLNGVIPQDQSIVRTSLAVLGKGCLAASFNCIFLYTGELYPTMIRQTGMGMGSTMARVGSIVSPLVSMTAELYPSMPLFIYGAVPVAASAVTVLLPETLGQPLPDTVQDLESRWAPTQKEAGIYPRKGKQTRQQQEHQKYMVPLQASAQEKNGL
Assay: Substrates uptake assay, MDCKII-OAT1 cells (14C-PAH)
Assay type: in vitro ADME
Excerpt: Drug transporters mediate the cellular uptake and efflux of their substrates. Therefore, cell lines overexpressing a drug transporter can be utilized to investigate inhibitors of the transporter by assessing changes in substrate uptake. For each drug transporter, we selected a well-characterized inhibitor as the positive control. Radiolabeled substrates were used to indicate the decrease in transport efficiency when the drug transporters were inhibited by PDQ or the control inhibitors.
The concentrations of the control drugs and the substrates were stated in the assay details. Working solutions of the control inhibitors, the radiolabeled substrates, and each dose of PDQ were prepared at 200 times (200×) more concentrated solutions with DMSO for further dilution.
Transporter-overexpressed cell lines. Human organic anion transporter-overexpressed cell lines MDCKII-OAT1 and S2-OAT3, human organic anion transport polypeptide-overexpressed cell lines HEK293A-OATP1B1 and HEK293A-OATP1B3, human organic cation transporter 2-overexpressed cell line S2-OCT2, and human multi-drug resistance protein MDR1 (or P-gp)-overexpressed cell line MDCKII-MDR1 were gifts from Japan Fuji Biomedical Co., Ltd. (Fuji, Shizuoka Prefecture, Japan). Breast cancer resistance protein-overexpressed vesicles (sf9-BCRP vesicle) were purchased from GenoMembrane Co., Ltd. (Yokohama, Kanagawa, Japan).
Substrates uptake assay. In this assay, we studied the inhibition of PDQ against transporters OAT1, OAT3, OCT2, OATP1B1 and OATP1B3 with MDCKII-OAT1, S2-OAT3, S2-OCT2, HEK293A-OATP1B1and HEK293A-OATP1B3 cells, respectively. The radiolabeled substrates for OAT1, OAT3, OATP1B1, OATP1B3 and OCT2 were […], respectively (Table 5). Probenecid ([…]) was the positive control inhibitor of OAT1 and OAT3, while rifampicin ([…]) served as the control drug of OATP1B1 and OATP1B3. For OCT2, we used […] cimetidine to compare with the inhibitory effect of PDQ. Two times (2×) more concentrated working solutions of the drugs and the substrate were prepared with Dulbecco’s phosphate-buffered saline (DPBS, Gibco, Grand Island, NY, USA.). Then, an equal volume of 2× drug solution and 2× radiolabeled substrate solution were mixed as the working mix. All reagents were pre-warmed to 37 °C.
The cells were digested with 0.05% trypsin/EDTA. The density of the single-cell suspension was adjusted to 2.0 × 10^5 cells/mL for S2 cells and to 1.5 × 10^5 cells/mL for MDCK II and HEK293A cells. The cell suspension was then added to the reservoirs of the 24-well plate for culture until full confluency. The medium in the wells was removed, and the wells were washed with DPBS. Then, the plate was incubated for 10 min with pre-warmed DPBS in the wells. After removing DPBS, […] of working mix was added to each well to initiate the substrate uptake process. The reaction time was 5 min for S2-OCT2 cells, while the other four types of cells were incubated with the reaction mix for 2 min. Cold DPBS was used to terminate the substrate transportation. To each well, […] NaOH ([…]) was added to lyse the cells. Then, […] cell lysate was transferred to the counting vials, and 3 mL scintillation cocktail (Aquasol-2, PerkinElmer, Waltham, MA, USA) was added. […] Each sample was replicated three times (N = 3).
In = [100 × (U − U0)/(Uc − U0)]%(3)
The results were expressed as mean ± standard deviation (SD) and analyzed with GraphPad Prism 8.0 software (CA, USA). The IC50 of PDQ was curve-fitted with the FORECAST function.

SMILES: CC(C)(O)[C@@H]1CC[C@@](C)([C@H]2CC[C@]3(C)[C@@H]2[C@H](O)C[C@@H]2[C@@]4(C)CC[C@H](O)C(C)(C)[C@@H]4CC[C@]23C)O1 [PDQ, (20S,24S)-dammar-20,24-epoxy-3β, 12β, 25-triol]
- IC50 (MDCKII-OAT1, 14C-PAH 5 µM, 2 min): > 30 µM
- DPM (14C-PAH uptake by OAT1) (inhibitor 0.1 μM): 540.3±39.2 DPM
- DPM (14C-PAH uptake by OAT1) (inhibitor 0.3 μM): 566.0±44.8 DPM
- DPM (14C-PAH uptake by OAT1) (inhibitor 1 μM): 547.7±68.8 DPM
- DPM (14C-PAH uptake by OAT1) (inhibitor 3 μM): 496.3±38.1 DPM
- DPM (14C-PAH uptake by OAT1) (inhibitor 10 μM): 558.7±19.7 DPM
- DPM (14C-PAH uptake by OAT1) (inhibitor 30 μM): 460.3±5.7 DPM
